Laboratory results from patent publication US20100093643A1 (priority 2006, published 2010).
Like-named read-outs stand apart in the source and are kept apart here. Square brackets hold non-standard residues; d marks the D form. Ends that are not written are not given here. Phe(4-NO2) = N[C@@H](Cc1ccc([N+](=O)[O-])cc1)C(=O)O; dDab = NCC[C@@H](N)C(=O)O

Key:
[1] = tested on: rats with ligature of coronary arteries; type: in vivo, rat; set-up: myocardial necrosis size: unit not given here
[2] = tested on: outbreed male mice; test: Analgesic activity in vivo, tail pinch method; set-up: species or system mouse; settings: for Duration of analgesic effect at ED60-80 / ED50 nmol/animal (dose interval) / Relative analgesic activity morphine = 1: intracisternal administration
Experimental: Analgesic activity of enkephalin analogues was determined by a “tail pinch” method [Ueda H.; Amano H.; Shiomi H.; Takagi H. (1979). Eur. J. Pharmacol., 56, 265-268]. […] Ten mice were used in each experiment.
The studied substances were dissolved in sterile physiological solution and injected in J-shaped needles into the brain of conscious mice at a dose of 10 μl. Control animals received 10 μl of sterile physiological solution. Intravenous administration was into the tail vein. Analgesic activity was tested by pinching the mouse tail with an artery clip with 200 g pressure. The mice who bit the clip within one second after application of pinching were selected for assays. Analgesic activity was defined as latency on the biting response greater than 6 sec. The analgesic tests were performed 5, 15, 30, 60 and 90 min after administration and then every 30 min until the analgesic reaction was stopped. The analgesic activity of the peptides was expressed as a percentage of mice not showing the biting response.

[3] = molecular target: T1, peripheral opiate receptors, guinea pig ileum (GPI, predominantly μ-type of opioid receptor) (Cavia porcellus, UniProt A0ACM8Q262); settings: [Leu^5]-enkephalin = 100
T1 construct: other: guinea pig ileum longitudinal muscle, electrical stimulation; GPI Relative potency, %; other: GPI assay

[4] = tested on: peripheral opiate receptors, guinea pig ileum (GPI, predominantly μ-type of opioid receptor); settings: ratio of relative potencies GPI to MVD
[5] = tested on: peripheral opiate receptors, mouse vas deferens (MVD); test: MVD bioassay, suppression of electrically induced contraction
Experimental: Brit. J. Pharmacol., 35, 10-28]. The longitudinal muscle of ileum from guinea pig of any sex (weight 350-500 g) was carefully separated from underlying circular muscle and placed into a small bath with Krebs solution at 36° C.
The solution was constantly aerated. A constant load of 0.2 g was applied to the tissue. The tissue was stimulated by means of the ring platinum electrodes by single impulses of […] duration with 0.1 Hz frequency. […] Vas deferens of mice (weight 27 to 30 g) were placed into a bath with modified Krebs solution (not containing magnesium sulphate) at 31° C. The substances under study were dissolved in distilled water. The inhibiting activity of the compounds was determined by accumulating doses, adding increasing concentrations of the compounds without washing. The activity of the preparations was expressed as IC50 in nmol/l. The results obtained in 8-10 tests were statistically processed using Student's criterion.

[6] = tested on: CD-1 male mice; test: Analgesic activity in vivo, hot plate method; set-up: species or system mouse; settings: for analgesic effect in words: hot plate
Experimental: Male Swiss albino mice (CD1), weighing 20-22 g were used throughout the study. The animals were housed in solid bottom polycarbonate cages with access to standard laboratory diet (Laboratory Rodent Diet PK-120) and tap water ad libitum, under controlled environmental conditions (temperature:18-26° C., 8 a.m. to 8 p.m. light-dark cycle). Mice were tested only once.
The Hot-plate-meter represents the thermostatic controllable, electro-heated up surface limited by transparent walls (L: 25 cm, W: 25 cm, H: 35 cm). The forward panel of the device is equipped by buttons for the control of time and a temperature mode (Columbus Instruments).
The i.v. administration was performed via tail vein as a bolus injection. The doses for all animals were calculated on the basis of the last value of the individual body weight.
The animals accurately were placed on the preheated hot plate (55±0.5° C.) after i.v. injection of saline or peptides and the latencies to first paw licking and first jumping were measured. The other behavioral reactions were ignored. The animals were removed from a hot surface after the first jumping. A cut-off time of 180 s was used to avoid tissue damage.
To evaluate the hot-plate test responses, the control latencies (t0) and test latencies (t1) were determined after injection of saline or peptides, respectively. The percentage of the maximal possible effect (% MPE) was calculated as % MPE=(t1−t0)/(t2−t0)×100, where the cut-off time (t2) was 180 s.
The latency for the first jumping is considered as the most indicative in the hot-plate test. The area under the time-response curve was calculated by methods described elsewhere (Cicero and Meyer, 1973), to assess the magnitude of antinociception (FIG. 5, see appendix).
The median analgesic dose (ED50) also has been calculated for this parameter.

[7] = tested on: male Sprague-Dawley rats, left coronary artery occlusion (LCAO); test: Cardiac ischemia rat model, left coronary artery occlusion 25 min / reperfusion 120 min, infarct size; type: in vivo
Experimental: Male Sprague-Dawley (CD) rats weighing 280-380 g were used throughout this study. The rats were anesthetized by i.p. administration of urethane (1-1.5 g/kg). A tracheotomy was performed, and the trachea of the animal was intubated with a cannula connected to a rodent ventilator (model UGO BASILE 7025). Body temperature was maintained at 37° C. by use of a heating pad and monitored using rectally placed temperature probes connected to a digital thermometer. Body temperature is monitored and maintained at 37±1° C.)
The femoral artery was isolated and cannulated to measure blood pressure (BP) by a BP transducer (model PN:1891-E45, DTX™, Singapore) connected with computer. Mean arterial pressure and heart rate was calculated by special software. The right femoral vein was cannulated to allow administration of peptides or saline and methylene blue dye.
A left thoracotomy was performed to expose the heart at the fifth intercostal space. The pericardium was removed and a suture was placed under the left coronary artery in the groove between the pulmonary outflow track and left ventricle. With the tubing placed on the myocardial surface, the ligature could be tightened around the left coronary artery and clamped to provide a readily reversible occlusion of blood flow. Hemodynamics and body temperature were monitored during the procedure.
The protocol of experiments conducted in urethane-anesthetized open-chest rats subjected to regional myocardial ischemia-reperfusion is illustrated in FIG. 1 (see appendix).
All animals were subjected to 25 minutes of occlusion and 2 hours of reperfusion. Several doses (0.1 μg/kg-1 μg/kg) of the peptide (4) were given 5 minutes before occlusion. The coronary artery in all rats was occluded by pulling up on the suture and clamping it with plastic tube. At 25 minutes, the clump was released and coronary artery reperfusion was allowed. The surface of the left ventricle pinks up. After 120 min of reperfusion, the ligature was again tightened to occlude the left coronary artery, and […] methylene blue dye (0.4 ml of 10% w/v in saline) was injected. Once the dye had stained the heart, except in the area at risk, clearly demarcating the total area at risk (AAR), the heart was then quickly removed from the animal and washed out in a water, and the atria, valvular material and right ventricular wall were removed leaving just the left ventricle. The left ventricle was then sectioned transversely into 2-mm slices. The area defined as normal (dyed blue) was separated from the AAR (not dyed blue), and the slices are stained by incubation in 1% 2,3,5-triphenyltetrazolium chloride in pH 7.4 buffer for 15 min at 37° C. Infarcted areas appeared whitish after 2,3,5-triphenyltetrazolium chloride staining, whereas non-infarcted, or viable, areas appeared reddish in colour. Then the slices were immersed in 10% formalin for 5 minutes for fixing.
The slices were photographed. The areas of infarct (2,3,5-triphenyltetrazolium chloride negative) and risk zone (2,3,5-triphenyltetrazolium chloride stained) for each slice are traced and digitized using a computerized planimetry technique. The areas of each region were estimated using computerized planimetry (program “ImageTool”)
The infarct area was divided by the area at risk to determine the ratio of the infarct area/area at risk. (IS/AAR). Data were presented as infarct size (IS) as a percentage of the AAR (i.e., % IS/AAR) for statistical analysis of cardioprotective effects (decreased % IS/AAR). The statistical comparison for in vivo infarct reduction was made with vehicle controls.
A dose-response curve for the cardioprotective effects of peptide (4), compared with vehicle (n=12), was produced with i.v. peptide (4) doses of 0.01 (n=6), 0.1 (n=12), 1.0 (n=12) μg/kg, and 0.005 (n=12) mg/kg administered 5 min before LCAO in a 1 ml/kg dosing volume as a bolus. […]

[8] = tested on: male Sprague-Dawley rats, left coronary artery occlusion (LCAO); test: as above; type: in vivo; remark: listed apart in the source
[9] = tested on: BALB mice under normobaric hypoxic hypoxia; test: Antihypoxic action, lifetime of mice under normobaric hypoxic hypoxia; type: in vivo, mouse
Experimental: Antihypoxic action of the new enkephalin analogue (1) was determined by the measurement of lifetime duration in mice under the normobaric hypoxic hypoxia conditions.
The experiments were conducted on BALB-bread mice weighing 20 to 22 g. The normobaric hypoxic hypoxia conditions were modelled by placing the animals in hermetic camera, containing Ca(OH)2 to absorb the excess of carbon dioxide. The substances studied were injected intraperitoneally 1 min. before the placing of animals in the hermetic camera. The peptides were used at doses 1.0 mg/kg. […] Sodium oxybutyrate at highest therapeutic dose was used as comparative compound. The lifetime was estimated as the time when the animals stopped making breathing movements.

[10] = intravenous administration, time point of 15 min
[11] = i.v., dose 8 μmol/kg, jump latency time (FIG. 4)
[12] = 0.1 μg/kg i.v. 5 min before occlusion
[13] = 5 μg/kg i.v. 5 min before occlusion

T1 sequence (A0ACM8Q262 1-400): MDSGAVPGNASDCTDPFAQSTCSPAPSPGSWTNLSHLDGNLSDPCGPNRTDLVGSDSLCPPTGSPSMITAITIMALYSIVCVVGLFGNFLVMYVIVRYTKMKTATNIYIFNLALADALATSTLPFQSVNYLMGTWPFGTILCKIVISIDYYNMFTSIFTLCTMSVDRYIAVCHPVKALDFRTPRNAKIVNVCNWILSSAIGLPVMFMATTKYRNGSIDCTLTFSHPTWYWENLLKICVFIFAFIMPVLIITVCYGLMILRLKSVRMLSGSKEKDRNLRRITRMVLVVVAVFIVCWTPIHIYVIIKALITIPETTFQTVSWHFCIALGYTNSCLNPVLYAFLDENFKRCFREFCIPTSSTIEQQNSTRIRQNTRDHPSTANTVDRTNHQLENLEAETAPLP

O=[N+]([O-])OCC(CO[N+](=O)[O-])O[N+](=O)[O-] [nitroglycerine, reference compound]
myocardial necrosis size ([1]; rat, in vivo): 54.04 ± 1.76 | CPK ([1]; rat, in vivo, 0.05 mg/kg): 101.1 ± 6.1 units/l | HF-CPK ([1]; rat, in vivo, 0.05 mg/kg): 19.8 ± 1.1 units/l | Lactate ([1]; rat, in vivo, 0.05 mg/kg): 1.80 ± 0.09 mmol/L

Tyr-Gly-Gly-Phe-Met [[Met^5]-enkephalin, reference compound]
Duration of analgesic effect at ED60-80 [2]: 15 min | ED50 nmol/animal (dose interval) [2]: 154 (90-261) nmol/animal | Relative analgesic activity morphine = 1 [2]: 0.008

Tyr-Gly-Gly-Phe-Leu [[Leu^5]-enkephalin, reference compound]
GPI Relative potency, % [3]: 100% | GPIrel/MVDrel [4]: 1 | MVD Relative potency, % ([5]; [Leu^5]-enkephalin = 100): 100% | IC50 ([5]; mouse vas deferens, electrical stimulation): 20 ± 1 nM | Duration of analgesic effect at ED60-80 [2]: 15 min | ED50 nmol/animal (dose interval) [2]: 174 (102-281) nmol/animal | Relative analgesic activity morphine = 1 [2]: 0.007

CN1CC[C@]23c4c5ccc(O)c4O[C@H]2[C@@H](O)C=C[C@H]3[C@H]1C5 [Morphine, reference compound]
ED50 ([6]; Mus musculus, 0.25 h, intravenous administration, time point of 15 min, read-out: ED50 (jump latency)): 2.67 mg/kg | ED50 ([2]; Mus musculus, intravenous administration, read-out: ED50 μmol/kg (dose interval)): 18 µmol/kg

Tyr-D-Orn(Ac-Gly)-Gly-Phe(p-NO2)—NH2 [Peptide 5]
analgesic effect in words ([6]; i.v.): practically similar to that of morphine | ED50 (jump latency) [6, 10]: 1.99 mg/kg

Y[dK](Ac)G[Phe(4-NO2)]-NH2 [Peptide 2]
ED50 (jump latency) [6, 10]: 1.7 mg/kg | analgesic activity exceeding that of morphine ([6]; intravenous, from ED50 at 15 min): 1.5 times

CC(C)NCC(O)COc1cccc2ccccc12.Cl (stereo not drawn) [anaprilinum, reference compound]
myocardial necrosis size ([1]; comparison medicines at highest therapeutic doses, observation time 12 hours): 53.80 ± 1.90

Tyr-D-Orn(Ac-Asn)-Gly-Phe(p-NO2)—NH2 [Peptide 3]
delay of analgesic effect [6, 11]: 15 min | analgesic effect in words ([6]; i.v.): practically similar to that of morphine | ED50 (jump latency) [6, 10]: 2.04 mg/kg

Y[dDab](Ac)G[Phe(4-NO2)]-NH2 [Peptide 4]
IS/AAR, % (infarct size as % of area at risk) ([7]; 0.01 μg/kg i.v. 5 min before occlusion): 45.1±4.6% | IS/AAR, % (infarct size as % of area at risk) [7, 12]: 32.0 ± 3.5% | Relative Reduction of Infarct size, % (Control = 0) [7, 12]: 25.4% | IS/AAR, % (infarct size as % of area at risk) ([7]; 1 μg/kg i.v. 5 min before occlusion): 26.0 ±3.5% | IS/AAR, % (infarct size as % of area at risk) [7, 13]: 32.5 ± 2.5% | Relative Reduction of Infarct size, % (Control = 0) [7, 13]: 24.2% | time of maximum analgesic effect [6, 11]: 30 min | analgesic effect in words ([6]; i.v.): weaker than the effect of the other four peptides tested | IS/AAR, level of ischemic damage ([8]; 1.0 μg/kg i.v. immediately after removal of the LCAO (start of reperfusion)): 32.5±2.4% | infarct size as % of Area at Risk (IS/AAR) ([8]; doses between 0.2 μg/kg and 3.2 μg/kg, 5 min before ischemia (dose-response curve)): smaller than 30%

O=C(O)CCCO [Sodium oxybutyrate, reference compound]
Duration of life ([9]; 1000.0 mg/kg (highest therapeutic dose) i.p. 1 min before hermetic chamber): 15.5 ± 0.4 min | lifetime increase in comparison with the control experiments ([9]; 1000.0 mg/kg i.p.): 24%
